Laboratory results from patent US20130072517A1 (Avanir Pharmaceuticals, Inc., priority 2002, published 2013).

Columns and labels:
Type in all cases: in vivo, human
[1] = tested on: ALS subjects with pseudobulbar affect; experiment: Clinical Study #4: CNS-LS score (primary efficacy); details: for Difference vs 30DM/30Q, mean difference in the CNS-LS reduction: controlling for baseline CNS-LS and study site
Excerpt: This was a multicenter, randomized, double-blind, controlled, parallel-group study. All study drugs were self-administered orally every twelve hours for twenty-eight days. The study included a screening visit and three other clinic visits on Days 1, 15, and 29. Day 29 was the last day the subject was on study and could occur anywhere between the morning of Day 26 and the morning of Day 32.
Subjects with clinically diagnosed pseudobulbar affect were screened for general health within four weeks before entry into the study. All eligible subjects had attained a score of 13 or above on the Center for Neurologic Study-Lability Scale (CNS-LS) at the clinic visit on Day 1.
(§1) Diary cards were collected on Day 15 and at the time of study completion.
(§2) Subjects completed the CNS-LS questionnaire and visual analog scales assessing quality of life (QOL) and quality of relationships (QOR) every two weeks (Days 1, 15, and 29) during the treatment period. A clinical psychologist, or other approved clinician, administered the Hamilton Rating Scale for Depression (HRSD) at the Screening Visit and on Day 29. Safety was evaluated on Day 15 and Day 29 by examining adverse events, results of physical examinations, vital signs, clinical laboratory values, and resting electrocardiograms (ECGs). In addition to blood samples taken to provide clinical laboratory data, blood was also taken for pharmacokinetic analysis and CYP2D6 genotyping. Each subject completed a diary in which the number of episodes experienced, medications taken, and any adverse events were recorded daily.
(§3) The primary efficacy variable was the CNS-LS score. All efficacy variables involving a change were determined by the baseline score being subtracted from the mean of the non-missing scores on Days 15 and 29. The secondary efficacy variables were laughing/crying episodes, QOL scores, and QOR scores. […]
The CNS-LS questionnaire used to assess primary efficacy is a seven-item self-report measure that provides a score for total pseudobulbar affect; it required approximately five minutes for the subject to complete. The range of possible scores was 7 to 35. […] This questionnaire is the only instrument for the measurement of pseudobulbar affect validated for use with ALS subjects.
The primary efficacy analysis was the change from baseline in CNS-LS scores, adjusted for center and baseline CNS-LS score. The descriptive statistics for the ITT Population are in Table 29.
These distributions have not been adjusted for baseline scores or for study site. […] As prospectively specified in the protocol, the differences in mean improvement in CNS-LS scores, adjusted for center and baseline CNS-LS scores, were analyzed by using linear regression according to the ANCOVA method of Frison and Pocock.

[2] = tested on: ALS subjects with pseudobulbar affect; experiment: Clinical Study #4: laughing/crying episode counts (diary)
Protocol: as §1, §3
(§4) Secondary efficacy was assessed by using two, 10-cm visual analog scales (VAS). One scale asked subjects to rate how much uncontrollable laughter, tearfulness, or anger had affected the overall quality of their life during the past week, and one scale asked subjects to rate how much uncontrollable laughter, tearfulness, or anger had affected the quality of their relationships with others during the past week. Each scale required less than one minute to complete. The subjects recorded episodes of pathological laughing and crying in a diary daily.
An analysis of secondary efficacy data was conducted.

[3] = tested on: ALS subjects with pseudobulbar affect; experiment: Clinical Study #4: QOL and QOR visual analog scales
Protocol: as §2, §3, §4

[4] = Clinical Study #5: concentrations in plasma of DM, DX and Q and correlation with pain intensity; details: final visit; for Concentration in plasma, Mean / Concentration in plasma, Median: extensive metabolizers
Protocol: Subjects visited the clinic every two weeks during the four-week duration of the study and were contacted by telephone during weeks without clinic visits. At each subsequent study visit or weekly phone call, the subjects were given the Pain Intensity Rating Scale and the Pain Relief Rating Scale and were queried regarding any adverse events that might have occurred since their previous visit. Subjects were administered the Peripheral Neuropathy Quality of Life (QOL) Instrument on Days 1 and 29 (or the final visit). Blood samples were taken at the visits on Day 15 and Day 29 to determine concentrations in plasma of DM, DX, and Q.

[5] = ITT population, mean of scores on Day 15 and Day 29 minus baseline (Day 1) score
[6] = ITT population, diary, weighted by days in the study
[7] = proportional-variance (constant dispersion) negative binomial model
[8] = quadratic-variance (mean dispersion) negative binomial model
[9] = All Days: mean of scores on Days 15 and 29 minus Day 1

SMILES: COc1ccc2c(c1)[C@]13CCCCC1[C@H](C2)N(C)CC3 (single isomer, unassigned; (+)) [Dextromethorphan, (+)-3-methoxy-N-methylmorphinan]
- Difference vs 30DM/30Q, mean difference in the CNS-LS reduction ([1]; Efficacy Evaluable Population (n = 101)): −3.78
- Difference vs 30DM/30Q, mean difference in the CNS-LS reduction ([1]; ITT Population (n = 125)): −3.29
- Change in CNS-LS scores, Max [1, 5]: 2.0
- Change in CNS-LS scores, Mean [1, 5]: −5.12
- Change in CNS-LS scores, Median [1, 5]: −4.50
- Change in CNS-LS scores, Min [1, 5]: −25.00
- Difference vs 30DM/30Q, mean difference in the CNS-LS reduction ([1]; Safety Population (n = 136)): −3.09
- Weekly episode counts, Crying, Max ([2]; ITT population, diary): 21.00
- Weekly episode counts, Crying, Median ([2]; ITT population, diary): 0.70
- Weekly episode counts, Crying, Min ([2]; ITT population, diary): 0.00
- Weekly episode counts, Laughing, Max ([2]; ITT population, diary): 726.55
- Weekly episode counts, Laughing, Median ([2]; ITT population, diary): 2.50
- Weekly episode counts, Laughing, Min ([2]; ITT population, diary): 0.00
- Weekly episode counts, Laughing/Crying, Max ([2]; ITT population, diary): 726.55
- Weekly episode counts, Laughing/Crying, Median ([2]; ITT population, diary): 8.97
- Weekly episode counts, Laughing/Crying, Min ([2]; ITT population, diary): 0.00
- Weekly episode counts, Crying, Wtd. Mean [2, 6]: 4.30
- Weekly episode counts, Laughing, Wtd. Mean [2, 6]: 35.29
- Weekly episode counts, Laughing/Crying, Wtd. Mean [2, 6]: 39.58
- Total episodes, times greater than in the 30DM/30Q group ([2]; Poisson regression model with adjustment for center): 6.4
- Total episodes, ratio to the 30DM/30Q group ([2]; Poisson regression model, outlier omitted): 2.3
- Crying, estimated ratio relative to the named group [2, 7]: 2.0
- Laughing, estimated ratio relative to the named group [2, 7]: 1.4
- Total counts, estimated ratio relative to the named group [2, 7]: 1.7
- Laughing, estimated ratio relative to the named group ([2]; proportional-variance negative binomial model, outlier subject omitted): 1.5
- Crying rates, factor between 30DM/30Q and the named group [2, 8]: twice
- Laughing rates, factor between 30DM/30Q and the named group [2, 8]: 2.6
- Total episode rates, factor between 30DM/30Q and the named group [2, 8]: 2.6
- Change in VAS QOL score, Max [3, 9]: 27
- Change in VAS QOL score, Mean [3, 9]: −17.41
- Change in VAS QOL score, Median [3, 9]: −11.0
- Change in VAS QOL score, Min [3, 9]: −90.5
- Change in VAS QOR score, Max [3, 9]: 23.5
- Change in VAS QOR score, Mean [3, 9]: −9.98
- Change in VAS QOR score, Median [3, 9]: −4.50
- Change in VAS QOR score, Min [3, 9]: −71.0
- Change in VAS QOL score, Max ([3]; Day 15 minus Day 1): 55
- Change in VAS QOL score, Mean ([3]; Day 15 minus Day 1): −17.14
- Change in VAS QOL score, Median ([3]; Day 15 minus Day 1): −13
- Change in VAS QOL score, Min ([3]; Day 15 minus Day 1): −90
- Change in VAS QOR score, Max ([3]; Day 15 minus Day 1): 34
- Change in VAS QOR score, Mean ([3]; Day 15 minus Day 1): −11.75
- Change in VAS QOR score, Median ([3]; Day 15 minus Day 1): −7
- Change in VAS QOR score, Min ([3]; Day 15 minus Day 1): −71
- Change in VAS QOL score, Max ([3]; Day 29 minus Day 1): 27
- Change in VAS QOL score, Mean ([3]; Day 29 minus Day 1): −19.31
- Change in VAS QOL score, Median ([3]; Day 29 minus Day 1): −7
- Change in VAS QOL score, Min ([3]; Day 29 minus Day 1): −91
- Change in VAS QOR score, Max ([3]; Day 29 minus Day 1): 26
- Change in VAS QOR score, Mean ([3]; Day 29 minus Day 1): −10.38
- Change in VAS QOR score, Median ([3]; Day 29 minus Day 1): −3.0
- Change in VAS QOR score, Min ([3]; Day 29 minus Day 1): −71
- Concentration in plasma, Mean ([4]; DM/Q MTD 30 mg): 59.0 ng/mL
- Concentration in plasma, Median ([4]; DM/Q MTD 30 mg): 67.4 ng/mL
- Concentration in plasma, Mean ([4]; DM/Q MTD 60 mg): 46.2 ng/mL
- Concentration in plasma, Median ([4]; DM/Q MTD 60 mg): 1.5 ng/mL
- Concentration in plasma, Mean ([4]; DM/Q MTD 90 mg): 117.0 ng/mL
- Concentration in plasma, Median ([4]; DM/Q MTD 90 mg): 117.0 ng/mL
- Concentration in plasma, Mean ([4]; DM/Q MTD 120 mg): 192.6 ng/mL
- Concentration in plasma, Median ([4]; DM/Q MTD 120 mg): 178.0 ng/mL
- Concentration in plasma, Mean ([4]; Total, all MTDs): 153.7 ng/mL
- Concentration in plasma, Median ([4]; Total, all MTDs): 144.5 ng/mL
- Concentration in plasma ([4]; poor metabolizer (MTD of 60 mg)): 126.4 ng/mL
